Source: patent US20230118142A1, “AGENTS FOR USE IN THE TREATMENT OF TISSUE DAMAGE” (UCL BUSINESS LTD, priority 2020, published 2023)
Where “and” joins values, the source holds several entries; their conditions need not be identical. Equal entries are not always repeated.

Experiments:
CRP [1] = target: T1, CRP (Homo sapiens, UniProt P02741); experiment: Roche immunoturbidimetric assay: pure CRP; assay type: binding; parameters: The final concentrations were 0.73 μM native pentameric CRP; from tissue; settings: pure CRP in TC buffer; read-out: IC50 (μM), SD; inhibition of Roche CRP immunoreactivity
T1 sequence (P02741 19-224): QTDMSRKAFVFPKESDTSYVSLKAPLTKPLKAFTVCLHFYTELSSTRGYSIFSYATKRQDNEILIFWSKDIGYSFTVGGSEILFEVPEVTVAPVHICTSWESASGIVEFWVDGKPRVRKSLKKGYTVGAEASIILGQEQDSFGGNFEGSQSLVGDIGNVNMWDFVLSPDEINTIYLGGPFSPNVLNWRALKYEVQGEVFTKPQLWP
Experimental: (i) Human CRP at ˜90 μg/ml (3.9 μM monomer or 0.78 μM pentamer) in TC buffer was prepared from a stock solution; a 75 μl aliquot was used in the assay.
(ii) Compounds were prepared from stock solutions at up to 10 mM in TC (labelled S1). They were serially diluted with TC buffer (100 μl ligand+200 μl TC) to provide up to 9 dilutions, S2-S10. A TC buffer control (S0) was included in each assay.
(iii) A 15 μl volume of each ligand solution was incubated with 75 μl of CRP for 1 h at 37° C. The final concentrations were CRP pentamer=0.73 μM, ligands S1-S10=625-0.03 μM, corresponding to ligand:CRP pentamer ratios of 853-0.04.
(iv) CRP concentrations were measured by the Roche microparticle-enhanced immunoturbidimetric assay (10) on the COBAS MIRA autoanalyser, and results expressed as a percentage of the CRP control.
(v) Data were plotted using Sigmaplot (V14) using the 4 parameter logistic curve y=min+(max−min)/(1+(x/EC50)^−Hill slope) to calculate EC50.
(vii) All compounds were assayed in comparison with a highly purified preparation of BPC8, that was prepared by Carbogen AMCIS AG, dissolved in sterile water and diluted into TC buffer as required.
The immunoturbidimetric CRP assay on the Roche COBAS MIRA Plus autoanalyser, utilises two different sized microparticles that are covalently coupled with two different monoclonal antibodies, which recognise different CRP epitopes. The assay was developed by Roche for clinical measurement of CRP serum and plasma with high sensitivity and a very wide dynamic range. Serendipitously, one of the two antibodies binds to an epitope present on the ligand binding B-face of CRP. Thus, when the binding pocket is occupied by ligand and, especially, when the B-face is occluded by the B-face to B-face interaction of two native CRP pentamers produced by cross linking via our unique bivalent ligands, the assay fails to detect the CRP. In contrast, the CRP is all detected and assayed normally by other assays that disrupt the crosslinking and/or use antibodies which recognise different, non-occluded, epitopes. Inhibition of CRP recognition in the Roche assay is thus a convenient tool to monitor the efficacy and potency of complex formation between our unique ligands and CRP.

CRP [2] = target: T1, CRP; experiment: Size exclusion chromatography of CRP/ligand cross linking; assay type: binding; parameters: The final concentrations were 0.73 μM native pentameric CRP; from tissue; settings: CRP/ligand complex re-chromatographed in absence of free ligand
Experimental: (i) Ligands were diluted to 0.5 mM in TC buffer from up to 10 mM stocks. Serial dilutions were prepared as required. […]
(iii) The complex was chromatographed on a Superdex200 column (10/300 GL; 24 ml bed volume), connected to the ÅKTA100 Explorer HPLC system, and equilibrated and eluted in TC buffer at 0.5 ml/min. Eluates were monitored at 280 nm and fractions (0.5 ml) collected as required.
Size exclusion chromatography on a Superdex 200 column equilibrated and eluted with TC buffer pH 8.0, and calibrated with standard globular marker proteins and with human CRP, the native CRP pentamer (Mr 115 kDa) eluted at 13.9 ml (range 13.7-14.0 ml, n=10).

CRP [3] = target: T1, CRP; experiment: In vivo clearance of CRP/ligand complexes generated in vivo in mice; parameters: The final concentrations were 0.73 μM native pentameric CRP; from tissue
Experimental: (i) Two groups of 8 wild-type C57BL/6 mice (male; 23-27 weeks old) were used: group 1 (control) and group 2 (treated).
(§1) (ii) Both groups of animals were given 200 μl of human CRP (5 mg/ml in azide-free TC buffer) subcutaneously on day 1.
(iii) On day 2 (+18 h), control animals were given a 200 μl intravenous bolus of TC buffer. Treated animals were given a 200 μl iv bolus of ligand (prepared at 5 mg/ml in TC buffer).
(iv) One timed blood sample and a terminal blood sample were collected from each mouse into heparinised tubes and weighed. This generated data in quadruplicate at 4 time points, normally 30, 60, 120 and 360 minutes.
(v) ^125I radiolabel was measured (Perkin Elmer Wizard; protocol #1) in whole blood to quantify total CRP. In some cases, electroimmunoassay as above was also used to determine total CRP concentration.
(vi) Plasma was prepared and free CRP determined by Roche immunoassay.
(§2) Subcutaneous injection of human CRP provided circulating CRP concentrations with which to test for effects of our ligands in vivo. (Table 4).

CRP [4] = target: T1, CRP; experiment: MIRA immunoturbidimetric assay; assay type: binding; parameters: The final concentrations were 0.73 μM native pentameric CRP; from tissue
Excerpt: The CRP immunoturbidimetric assay on the Roche COBAS MIRA Plus autoanalyser, utilises two different sized latex particles that are covalently coupled with two different monoclonal antibodies with specificity for different CRP epitopes (10). The assay was validated by Roche for measurement of native pentameric CRP, for which it has high sensitivity and specificity and a high upper detection limit; it was calibrated against a standard produced in our laboratory. Serendipitously, one of the assay's antibodies binds to an epitope present on the ligand binding B face of CRP. […]
CRP concentrations were measured in the presence and absence of ligands by the COBAS MIRA autoanalyser. […] CRP concentration was determined spectrophotometrically (Beckman Coulter DU 650) in quartz cuvettes with a 1 cm light path, by measuring A280 after correction for absorbance at 320 nm (light scattering) and using the measured absorption coefficient A(1%, 1 cm)=17.5 for human CRP (7). […]
Data are expressed as measured CRP (mg/L) against final total ligand concentration (M) and were plotted using Sigmaplot (V14) using the 4 parameter logistic curve y=min+(max−min)/(1+(x/EC50)^−Hill slope) to calculate EC50. Where appropriate, samples were also measured in whole normal human serum following the addition of a known amount of human CRP. […]

CRP [5] = target: T1, CRP; experiment: In vivo clearance of preformed CRP/ligand complexes in mice; parameters: from tissue
Experimental: (i) CRP at 1 mg/ml in azide-free TC buffer (containing, in some experiments, ˜10^6 cpm/ml of ^125I-CRP) was incubated with a 5-fold molar excess of ligand. A control (ligand-free) sample was also prepared. Cross linking of CRP was confirmed by SEC in TC buffer of a small sample of complex.
(ii) Two groups of eight wild-type C57BL/6 mice (male; 23-27 weeks old) were used.
The complex or control (200 μl, 200 μg CRP) was injected into the tail vein of each mouse. A single timed collection of blood was taken from the tail vain of each mouse; a second terminal sample was also collected. This yielded 4 samples each at 30, 60, 120 and 180 min for control and treated groups.
(iii) Blood samples were weighed and CRP measured in the Roche assay and, in some cases by electroimmunoassay (4, 13). ^125I-CRP was measured by gamma counting (Perkin Elmer Wizard; protocol #1).
Complexes were prepared in vitro using ^125I-labelled CRP and an excess of ligand, and the mixture was then injected intravenously into mice. Clearance of CRP was monitored by counting of the ^125I-CRP tracer and stable CRP-ligand complexes were detected by lack of CRP detection in the Roche assay of the plasma samples. The formation of CRP/ligand complexes was confirmed by size exclusion chromatography before use in each in vivo experiment.

[6] = Circulating CRP concentrations after subcutaneous CRP in mice; assay type: in vivo; settings: individual mice
Experimental: as §1, §2

Compound | IC50 (CRP [1]) [µM] | Stable to rechromatography (CRP [2]) | IC50 (CRP [4]) [µM] | also measured
O=C(NC(C(=O)O)[C@H]1CN2CCC1CC2)c1ccc(C(=O)NC(C(=O)O)[C@H]2CN3CCC2CC3)cc1 (stereo partly drawn) [Compound P2B-B, (R,2R,2′R)-2,2′-(terephthaloylbis(azanediyl))bis(2-((R)-quinuclidin-3-yl)acetic acid)] | 0.64 ± 0.17 | Yes | 0.6 | Time CRP:ligand complex generated in vivo was stable (CRP [3]): at least 1 hour
O=C(NC(C(=O)O)[C@H]1CN2CCC1CC2)c1cccc(C(=O)NC(C(=O)O)[C@H]2CN3CCC2CC3)c1 (stereo partly drawn) [Compound P2B-E, 2-[[3-[[carboxy-[(3R)-quinuclidin-3-yl]methyl]carbamoyl]benzoyl]amino]-2-[(3R)-quinuclidin-3-yl]acetic acid] |  |  | 2.02 | 
O=C(O)C(NC(=O)[C@H]1CC[C@H](C(=O)NC(C(=O)O)[C@H]2CN3CCC2CC3)CC1)[C@H]1CN2CCC1CC2 (stereo partly drawn) [Compound P2B-H, 2-[[4-[[-carboxy-[(3R)-quinuclidin-3-yl]methyl]carbamoyl]cyclohexanecarbonyl]amino]-2-[(3R)-quinuclidin-3-yl]acetic acid] | 0.6 | Yes |  | Time complex generated in vivo was partially stable (CRP [3]): at least 3 hours
O=C(NC([C@H]1CN2CCC1CC2)P(=O)(O)OCc1ccccc1)c1ccc(C(=O)NC([C@H]2CN3CCC2CC3)P(=O)(O)OCc2ccccc2)cc1 (some centres unmarked) [Compound P3A-C] | 0.91 |  |  | Time complexes stable in vivo (CRP [5]; complexes formed in vitro): at least 6 hours
CRP: Human C-reactive protein, isolated and purified, injected into mice |  |  |  | Circulating CRP concentration ([6]; 16 h after subcutaneous 1 mg CRP): 58.2 mg/L and 69.2 mg/L; Circulating CRP concentration ([6]; 18 h after subcutaneous 1 mg CRP): 44.0 mg/L and 57.2 mg/L; Circulating CRP concentration ([6]; 24 h after subcutaneous 1 mg CRP): 24.0 mg/L and 32.2 mg/L; t1/2 of clearance of CRP (CRP [5]; intravenous, 125I-CRP tracer): ~2.17 h
